One data set addresses T1, native rat mGluR2 (Rattus norvegicus, UniProt P31421).
T1 construct: from tissue; host or cells: rat brain cortex membranes (Sprague-Dawley rats, Charles River Laboratories)
Description: [35S]GTPγS binding assay using cortical rat brain membranes. It counts as biochemical. As to conditions: selective mGluR2 agonist such as LY379268; rat cortical membranes; 3 or 10 μM of positive allosteric modulator. The text has this:
The [^35S]GTPγS binding is a functional membrane-based assay used to study G-protein coupled receptor (GPCR) function. This method is using a binding assay to assess the initial step in receptor-mediated G protein activation in membranes prepared from cells expressing recombinant GPCR or using membranes from discrete area of the rat brain. In brief, the assay is measuring the activation of G proteins by catalyzing the exchange of guanosine 5′-diphosphate (GDP) by guanosine 5′-triphosphate (GTP) at the α subunit. The GTP-bounded G proteins dissociate into two subunits, Gα-GTP and Gβγ, which in turn regulate intracellular enzymes and ion channels. GTP is rapidly hydrolysed by the Gα-subunit (GTPases) and the G protein is deactivated and ready for new GTP exchange cycle (Harper (1998) Curr Protoc Pharmacol 2.6.1-10, John Wiley & Sons, Inc.). [^35S]GTPγS, a non-hydrolyzed analogue of GTP, is used for this purpose.
This method is widely used to study receptor activation of G protein in membranes prepared from rat brain tissue, including mGluR2 receptors (Schaffhauser et al 2003, Pinkerton et al, 2004). mGluR2 receptors are expressed in the rat brain cortex (Mutel et al (1998) J. Neurochem. 71:2558-64; Schaffhauser et al (1998) Mol. Pharmacol. 53:228-33) and are coupled to Gαi-protein, a preferential coupling for this method.
[^35S]GTPγS binding assay using cortical rat brain membranes preparation was used and adapted from Schaffhauser et al ((2003) Mol. Pharmacol. 4:798-810) for the detection of the positive allosteric modulator properties of the compounds of this invention on native rat mGluR2. In order to eliminate the possible interference with group III Gαi-protein coupled mGluRs (mGluR4, mGluR7, mGluR8; mGluR6 is not expressed in the cortex (Laurie et al (1997) Neuropharmacol. 36:145-52)), the potentiation of the response to a selective mGluR2 agonist, such as DCG-IV (Cartmell et al. (1998) Br. J. Pharmacol. 123(3):497-504) or LY379268 (Monn et al. (1999) J. Med. Chem 42:1027-40), by compounds described in the present invention was performed.
Cortices were dissected out from brains of 200-300 g Sprague-Dawley rats (Charles River Laboratories, L'Arbresle, France). Tissues were homogenized in 6 volumes (vol/wt) of 10% sucrose at 4° C. using a glass-teflon homogenizer. The homogenate was centrifuged at 1250 g for 10 min, and the supernatant was centrifuged at 40,000 g for 20 min (4° C.). The pellet was resuspended in 25 ml water using a Polytron disrupter (Kinematica AG, Luzern, Switzerland) and centrifuged for 10 min at 3000 g. (4° C.). The supernatant was centrifuged at 40,000 g for 20 min (4° C.). The supernatant was discarded and the pellet washed twice by resuspension in 10 volumes 5 mM HEPES-KOH, pH 7.4. The homogenate was frozen and thawed twice and centrifuged at 40,000 g for 20 min. The final pellet was resuspended in 5 mM HEPES-KOH, pH 7.4 and stored at −80° C. before its use. Protein concentration was determined by the Bradford method (Bio-Rad protein assay, Reinach, Switzerland) with bovine serum albumin as standard.
Measurement of mGluR2 positive allosteric modulators properties in rat cortical membranes was performed as follows: rat cortical membrane (1.5 μg) were incubated in 96-well microplates for 15 min at 30° C. in assay buffer (50 mM HEPES pH 7.4, 100 mM NaCl, 5 mM MgCl2, 10 μM GDP, 10 μg/ml saponin, EGTA 0.2 mM) with increasing concentrations of positive allosteric modulator (from 1 nM to 10 μM) and a minimal concentration of DCG-IV or LY379268, a selective mGluR2 agonist, that has been determined in previous experiments and that corresponds to the EC20, a concentration that gives 20% of the maximal response of the agonist, and is in accordance to published data (Pin et al. (1999) Eur. J. Pharmacol. 375:277-294). […]
A general note: GTPγS resists hydrolysis and so accumulates on activated G proteins.

This note sets out measurements from US8399493B2, “Pyridinone derivatives and their use as positive allosteric modulators of mGluR2-receptors” (Janssen Pharmaceuticals, Inc., priority 2004, dated 2013).

T1 sequence (P31421 19-872): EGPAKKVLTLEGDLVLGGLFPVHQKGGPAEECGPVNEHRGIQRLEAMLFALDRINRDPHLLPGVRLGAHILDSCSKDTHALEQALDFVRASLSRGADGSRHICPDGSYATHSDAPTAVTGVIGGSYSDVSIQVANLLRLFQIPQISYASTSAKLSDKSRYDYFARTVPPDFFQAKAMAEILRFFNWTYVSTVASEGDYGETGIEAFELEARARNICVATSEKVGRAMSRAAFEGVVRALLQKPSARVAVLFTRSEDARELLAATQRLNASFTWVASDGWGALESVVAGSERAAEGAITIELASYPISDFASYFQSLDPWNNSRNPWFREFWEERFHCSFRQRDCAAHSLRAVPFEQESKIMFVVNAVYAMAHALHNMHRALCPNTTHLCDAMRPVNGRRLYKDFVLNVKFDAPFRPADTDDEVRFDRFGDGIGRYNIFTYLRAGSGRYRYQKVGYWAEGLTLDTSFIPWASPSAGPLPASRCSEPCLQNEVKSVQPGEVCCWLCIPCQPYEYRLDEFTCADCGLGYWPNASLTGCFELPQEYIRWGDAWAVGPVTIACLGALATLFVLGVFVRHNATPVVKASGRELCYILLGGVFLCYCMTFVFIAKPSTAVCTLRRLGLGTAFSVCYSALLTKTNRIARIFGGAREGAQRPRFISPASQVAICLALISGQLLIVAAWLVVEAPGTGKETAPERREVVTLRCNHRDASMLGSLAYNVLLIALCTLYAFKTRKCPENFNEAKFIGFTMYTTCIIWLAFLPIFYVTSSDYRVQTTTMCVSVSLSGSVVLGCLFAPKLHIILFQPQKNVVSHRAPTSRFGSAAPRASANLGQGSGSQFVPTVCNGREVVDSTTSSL

In the case of `O=C(O)CCc1ccc(-c2ccc(=O)n(Cc3ccc(Cl)cc3)c2)cc1` [2-32], the melting point (commonly the temperature, or range, at which the solid turns liquid) amounted to 185 °C. Moreover, the “Activity: left-ward shift of agonist mGluR2 concentration-response curve” value (shortened to “Activity: left-ward shift”) at native rat mGluR2 was “++ (left-ward shift of agonist mGluR2 concentration-response curve [2- to 3.5-fold])”.

The molecule `CS(=O)(=O)Nc1cccc(-c2ccc(=O)n(Cc3ccc(Cl)cc3)c2)c1` [2-55] registered a melting point of 169 °C. On native rat mGluR2, the “Activity: left-ward shift” value is “++ (left-ward shift of agonist mGluR2 concentration-response curve [2- to 3.5-fold])”.

With `Cc1ccc(-c2ccc(=O)n(Cc3ccc(Cl)cc3)c2)nc1` [2-61], the melting point was 135 °C. Further, the “Activity: left-ward shift” value on native rat mGluR2 was “++ (left-ward shift of agonist mGluR2 concentration-response curve [2- to 3.5-fold])”.

As for `COc1cccc(Cc2ccc(=O)n(Cc3ccc(Cl)cc3)c2)c1` [3-02, 5-(3-Methoxybenzyl)-1-(4-chlorobenzyl)pyridin-2(1H)-one], on native rat mGluR2, the “Activity: left-ward shift” value was “++ (left-ward shift of agonist mGluR2 concentration-response curve [2- to 3.5-fold])”.

As for `COc1ccc(-c2ccc(=O)n(Cc3ccc(Cl)cc3)c2)cc1` [4-20], the melting point worked out at 142 °C. The “Activity: left-ward shift” value at native rat mGluR2 was “+++ (left-ward shift of agonist mGluR2 concentration-response curve [>3.5])”.

In turn, `COc1ccc(-c2ccc(=O)n(Cc3ccc(C(F)(F)F)nc3)c2)cc1.Cl` [4-47, 5-(4-Methoxyphenyl)-1-((6-(trifluoromethyl)pyridin-3-yl)methyl)-pyridin-2(1H)-one hydrochloride] yielded a melting point of 168 °C. In addition, the “Activity: left-ward shift” value at native rat mGluR2 was “+++ (left-ward shift of agonist mGluR2 concentration-response curve [>3.5])”.

`COc1ccc(-c2ccc(=O)n(Cc3ccc(F)c(F)c3)c2)cn1` [6-16] came in with a melting point of 120 °C. The “Activity: left-ward shift” value on native rat mGluR2 was “++ (left-ward shift of agonist mGluR2 concentration-response curve [2- to 3.5-fold])”.

`O=c1ccc(-c2ccc(OCc3nn[nH]n3)cc2)cn1Cc1ccc(Cl)cc1F` [6-65, 5-(4-((2H-Tetrazol-5-yl)methoxy)phenyl)-1-(4-chloro-2-fluorobenzyl)pyridin-2(1H)-one] displayed a melting point of 197 °C. Further, the “Activity: left-ward shift” value at native rat mGluR2 is “+++ (left-ward shift of agonist mGluR2 concentration-response curve [>3.5])”.

Consider `O=c1ccc(-c2ccc3sccc3c2)cn1Cc1ccc(Cl)cc1F` [6-69, 1-(4-Chloro-2-fluorobenzyl)-5-(benzo[b]thiophen-5-yl)pyridin-2(1H)-one], for which the melting point was 110 °C.

For `CS(=O)(=O)NCCOc1ccc(-c2ccc(=O)n(Cc3ccc(Cl)cc3F)c2)cc1` [6-70], the melting point turned out to be 139 °C.

On to `CS(=O)(=O)NCCCOc1ccc(-c2ccc(=O)n(Cc3ccc(Cl)cc3F)c2)cc1` [6-71], for which the melting point worked out at 157 °C.

Take `CS(=O)(=O)NCc1cccc(-c2ccc(=O)n(Cc3ccc(Cl)cc3F)c2)c1` [6-72]: the melting point is 110 °C.

On to `CS(=O)(=O)NCc1ccc(-c2ccc(=O)n(Cc3ccc(Cl)cc3F)c2)cc1` [6-73], for which the melting point amounted to 165 °C. In addition, at native rat mGluR2, the “Activity: left-ward shift” value was “++ (left-ward shift of agonist mGluR2 concentration-response curve [2- to 3.5-fold])”.

Regarding `O=c1ccc(-c2ccc(S(=O)(=O)N3CCOCC3)cc2)cn1Cc1ccc(Cl)cc1F` [6-74], the melting point is 141 °C.

In turn, `O=c1ccc(-c2ccc(S(=O)(=O)N3CCCC3)cc2)cn1Cc1ccc(Cl)cc1F` [6-75] registered a melting point of 177 °C.

With `COc1ccc(Cn2cc(-c3ccc(C(C)=O)cc3)ccc2=O)cc1` [6-76], the melting point came to 97 °C.

On to `COc1ccc(Cn2cc(-c3ccc(C#N)cc3)ccc2=O)cc1` [6-77], for which the melting point came to 134 °C.

Molecule `COc1ccc(-c2ccc(=O)n(Cc3ccc(C(F)(F)F)nc3)c2)cn1` [6-80] gave a melting point of 160 °C.

With `O=c1ccc(-c2ccccc2)cn1Cc1nc2ccccc2s1` [6-81], the melting point came out at 149 °C.

Consider `Cl.O=c1ccc(C#Cc2cccnc2)cn1Cc1cccc(F)c1` [7-02, 1-(3-Fluorobenzyl)-5-(2-(pyridin-3-yl)ethynyl)pyridin-2(1H)-one hydrochloride], for which the melting point was found to be 179 °C. For the same molecule, the “Activity: left-ward shift” value on native rat mGluR2 was “+ (left-ward shift of agonist mGluR2 concentration-response curve [<2])”.

`O=c1cc(OCCc2ccccc2)ccn1Cc1cccc(F)c1` [7-03, 1-(3-Fluorobenzyl)-4-phenethoxypyridin-2(1H)-one] had a melting point of 93 °C.

Molecule `CC(C)CCn1cc(-c2cccc(NS(C)(=O)=O)c2)ccc1=O` [8-02, N-(3-(1-Isopentyl-6-oxo-1,6-dihydropyridin-3-yl)phenyl)methane-sulfonamide] had a melting point of 159 °C.

`COc1ccc(-c2cc(CO)c(=O)n(Cc3ccc(Cl)cc3)c2)cc1` [9-08, 1-(4-Chlorobenzyl)-3-(hydroxymethyl)-5-(4-methoxyphenyl)pyridin-2(1H)-one] had a melting point of 128 °C.

In the case of `COCCc1cc(=O)n(Cc2ccc(Cl)cc2)cc1-c1ccc(OC)cc1` [9-17, 1-(4-Chlorobenzyl)-4-(2-methoxyethyl)-5-(4-methoxyphenyl)pyridin-2(1H)-one], the “Activity: left-ward shift” value on native rat mGluR2 is “+ (left-ward shift of agonist mGluR2 concentration-response curve [<2])”.

Take `COc1ccc(-c2cn(Cc3ccc(Cl)cc3F)c(=O)cc2OC)cc1` [9-18, 1-(4-Chloro-2-fluorobenzyl)-4-methoxy-5-(4-methoxyphenyl)pyridin-2(1H)-one]: the “Activity: left-ward shift” value at native rat mGluR2 was “+ (left-ward shift of agonist mGluR2 concentration-response curve [<2])”.

Turning to `CC(C)CCn1ccc(-c2cccs2)c(C#N)c1=O` [10-28, 1,2-Dihydro-1-isopentyl-2-oxo-4-(thiophen-2-yl)pyridine-3-carbonitrile], the melting point came out at 123 °C. Further, on native rat mGluR2, the “Activity: left-ward shift” value was “+++ (left-ward shift of agonist mGluR2 concentration-response curve [>3.5])”.

`COc1ccc(-c2ccn(Cc3cccc(F)c3)c(=O)c2)cc1` [11-03, 1-(3-Fluorobenzyl)-4-(4-methoxyphenyl)pyridin-2(1H)-one] yielded a melting point of 114 °C. In addition, the “Activity: left-ward shift” value at native rat mGluR2 is “+ (left-ward shift of agonist mGluR2 concentration-response curve [<2])”.

As for `COc1ccc(-c2cn(Cc3ccc(Cl)cc3)c(=O)cn2)cc1` [12-06, 1-(4-Chlorobenzyl)-5-(4-methoxyphenyl)pyrazin-2(1H)-one], the melting point came out at 133 °C. For the same molecule, the “Activity: left-ward shift” value at native rat mGluR2 was “+ (left-ward shift of agonist mGluR2 concentration-response curve [<2])”.

Molecule `O=c1ccc(CNc2ccccc2)cn1Cc1ccc(Cl)cc1` [16-01] gave a melting point of 142 °C.

Consider `COc1ccc(OCc2ccc(=O)n(Cc3ccc(Cl)cc3)c2)cc1` [16-02, 1-(4-Chlorobenzyl)-5-((4-methoxyphenoxy)methyl)pyridin-2(1H)-one], for which the melting point was 114 °C.

`O=c1ccc(COc2ccccc2)cn1Cc1ccc(F)c(F)c1` [16-03, 1-(3,4-Difluorobenzyl)-5-(phenoxymethyl)pyridin-2(1H)-one]: the melting point is 89 °C.

`O=c1ccc(COc2ccccc2)cn1Cc1ccc(Cl)cc1F` [16-04] yielded a melting point of 86 °C.
